Test results from patent US10864191B2, “5-HT6 receptor antagonists for use in the treatment of Alzheimer's disease with apathy as comorbidity” (H. Lundbeck A/S, priority 2016, dated 2020).
pKi: −log10 of the molar value.

How the values were obtained:
h5-HT2B = h5-HT2B (Homo sapiens, UniProt P41595); conditions: cited from earlier work
h5-HT2A = h5-HT2A (Homo sapiens, UniProt P28223); conditions: cited from earlier work
h5-HT1F = biological target: T1, h5-HT1F (Homo sapiens, UniProt P30939); conditions: cited from earlier work
T1 sequence (P30939 1-366): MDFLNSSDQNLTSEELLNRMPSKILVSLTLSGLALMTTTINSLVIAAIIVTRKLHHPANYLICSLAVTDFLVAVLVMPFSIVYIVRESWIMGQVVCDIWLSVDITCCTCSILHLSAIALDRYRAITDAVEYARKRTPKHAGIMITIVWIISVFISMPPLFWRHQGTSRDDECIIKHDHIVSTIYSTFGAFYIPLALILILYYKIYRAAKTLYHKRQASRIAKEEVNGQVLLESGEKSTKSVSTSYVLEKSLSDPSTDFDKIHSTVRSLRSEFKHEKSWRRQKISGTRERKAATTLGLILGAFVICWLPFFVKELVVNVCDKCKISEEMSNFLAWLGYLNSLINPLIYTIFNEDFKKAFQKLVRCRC

[1] = system: donepezil-treated patients with moderate Alzheimer's disease; conditions: add-on to donepezil; cited from earlier work
h5-HT1E = h5-HT1E (Homo sapiens, UniProt P28566); conditions: cited from earlier work
Chain of h5-HT1E (P28566 whole entry): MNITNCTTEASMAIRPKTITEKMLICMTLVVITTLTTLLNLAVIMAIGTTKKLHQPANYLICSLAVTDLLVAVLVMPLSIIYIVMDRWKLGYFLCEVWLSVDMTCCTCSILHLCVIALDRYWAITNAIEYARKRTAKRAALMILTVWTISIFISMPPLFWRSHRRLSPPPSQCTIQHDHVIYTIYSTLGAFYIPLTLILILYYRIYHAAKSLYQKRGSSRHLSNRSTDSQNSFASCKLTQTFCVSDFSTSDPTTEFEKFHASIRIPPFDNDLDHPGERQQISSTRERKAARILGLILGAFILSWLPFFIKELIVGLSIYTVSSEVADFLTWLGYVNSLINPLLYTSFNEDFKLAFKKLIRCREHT

h5-HT1D = h5-HT1D (Homo sapiens, UniProt P28221); conditions: cited from earlier work
Chain of h5-HT1D (P28221 whole entry): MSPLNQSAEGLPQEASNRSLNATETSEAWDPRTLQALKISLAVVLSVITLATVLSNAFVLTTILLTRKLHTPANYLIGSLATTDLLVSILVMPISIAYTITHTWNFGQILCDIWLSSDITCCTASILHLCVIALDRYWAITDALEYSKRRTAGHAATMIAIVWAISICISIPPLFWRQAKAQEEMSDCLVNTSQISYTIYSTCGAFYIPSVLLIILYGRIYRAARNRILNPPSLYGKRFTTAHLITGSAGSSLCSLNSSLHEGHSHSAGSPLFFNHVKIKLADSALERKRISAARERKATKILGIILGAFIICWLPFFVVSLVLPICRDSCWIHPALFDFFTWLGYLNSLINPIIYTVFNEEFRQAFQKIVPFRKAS

[2] = system: donepezil-treated patients with moderate Alzheimer's disease; assay: LADDER study post-hoc analysis: Activities of Daily Living (ADCS-ADL) by NPI apathy score; type: in vivo, human
Procedure: Patients were randomly assigned (1:1) to double-blind treatment with idalopirdine or placebo. The same patient population as in Example 3 was analysed in a post-hoc analysis. For the post-hoc analysis apathy was considered present if the apathy score as measured by Neuropsychiatric Inventory (NPI) was 1 or higher. The statistical analysis predicted a significant interaction at a 5% significance level between apathy score and treatment effect of idalopirdine on Activities of Daily Living as measured by the ADCS-ADL score (Galasko et al; An inventory to assess activities of daily living for clinical trials in Alzheimer's Disease. Alzheimer Dis Assoc Disord. 1997;11(Suppl 2):22-32) (a positive score means an improvement): […]

[3] = system: donepezil-treated patients with moderate Alzheimer's disease; assay: LADDER study: cognition (ADAS-cog) in donepezil-treated patients, incl. post-hoc analysis by NPI apathy score; type: in vivo, human
Procedure: The […] study that was conducted to assess the effect on cognitive performance of idalopirdine in donepezil-treated patients with moderate Alzheimer's disease. The […] study is registered with ClinicalTrials.gov, number NCT01019421 and is reported in Wilkinson D, et al. Safety and efficacy of idalopirdine, a 5-HT6 receptor antagonist, in patients with moderate Alzheimer's disease (LADDER): a randomised, double-blind, placebo-controlled phase 2 trial Lancet Neurol 2014; 13: 141-49. […] Patients were randomly assigned (1:1) to double-blind treatment with idalopirdine or placebo. The cognitive subscale of the 70-point, 11-item Alzheimer's Disease Assessment Scale (ADAS-cog) was rated at baseline and at weeks 4, 12, and 24. The ADAS-Cog scale is described in Rosen W G et al. A new scale for Alzheimer's disease. Am J Psychiatry 1984; 141: 1356-64. […] Subsequent to the analysis of the primary and secondary endpoints of the […] study as described in Example 2 above a post-hoc analysis was conducted. […] For the post-hoc analysis apathy was considered present if the apathy score as measured by Neuropsychiatric Inventory (NPI) was 1 or higher. The statistical analysis predicted a significant interaction at a 5% significance level between apathy score and treatment effect of idalopirdine on cognition as measured by the ADAS-Cog score (a negative score means less decline in cognitive skills and is thus desirable): […]

h5-HT1A = biological target: T2, h5-HT1A (Homo sapiens, UniProt P08908); conditions: cited from earlier work
T2 sequence (P08908 1-422): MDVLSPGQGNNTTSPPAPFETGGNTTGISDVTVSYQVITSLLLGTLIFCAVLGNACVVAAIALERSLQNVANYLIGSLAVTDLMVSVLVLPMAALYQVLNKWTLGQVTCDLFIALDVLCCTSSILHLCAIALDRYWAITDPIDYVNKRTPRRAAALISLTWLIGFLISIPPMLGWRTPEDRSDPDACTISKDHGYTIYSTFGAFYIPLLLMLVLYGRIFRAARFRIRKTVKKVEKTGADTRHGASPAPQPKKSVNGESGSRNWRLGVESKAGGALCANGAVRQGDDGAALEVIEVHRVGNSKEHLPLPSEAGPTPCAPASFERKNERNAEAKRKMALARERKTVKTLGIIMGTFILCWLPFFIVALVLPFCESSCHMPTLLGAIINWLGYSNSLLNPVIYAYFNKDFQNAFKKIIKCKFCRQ

h5-HT1B = h5-HT1B (Homo sapiens, UniProt P28222); conditions: cited from earlier work
Chain of h5-HT1B (P28222 whole entry): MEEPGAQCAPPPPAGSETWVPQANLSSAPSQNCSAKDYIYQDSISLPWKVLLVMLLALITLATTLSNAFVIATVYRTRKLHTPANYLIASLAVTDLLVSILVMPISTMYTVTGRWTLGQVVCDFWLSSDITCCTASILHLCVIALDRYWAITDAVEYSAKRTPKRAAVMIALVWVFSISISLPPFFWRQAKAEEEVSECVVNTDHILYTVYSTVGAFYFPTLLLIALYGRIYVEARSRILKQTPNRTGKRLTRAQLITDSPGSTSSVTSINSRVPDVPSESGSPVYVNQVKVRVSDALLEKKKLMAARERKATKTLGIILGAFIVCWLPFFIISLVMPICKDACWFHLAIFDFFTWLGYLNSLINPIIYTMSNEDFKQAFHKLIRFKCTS

h5-HT7 = h5-HT7 (Homo sapiens, UniProt P34969); conditions: cited from earlier work
Chain of h5-HT7 (P34969 whole entry): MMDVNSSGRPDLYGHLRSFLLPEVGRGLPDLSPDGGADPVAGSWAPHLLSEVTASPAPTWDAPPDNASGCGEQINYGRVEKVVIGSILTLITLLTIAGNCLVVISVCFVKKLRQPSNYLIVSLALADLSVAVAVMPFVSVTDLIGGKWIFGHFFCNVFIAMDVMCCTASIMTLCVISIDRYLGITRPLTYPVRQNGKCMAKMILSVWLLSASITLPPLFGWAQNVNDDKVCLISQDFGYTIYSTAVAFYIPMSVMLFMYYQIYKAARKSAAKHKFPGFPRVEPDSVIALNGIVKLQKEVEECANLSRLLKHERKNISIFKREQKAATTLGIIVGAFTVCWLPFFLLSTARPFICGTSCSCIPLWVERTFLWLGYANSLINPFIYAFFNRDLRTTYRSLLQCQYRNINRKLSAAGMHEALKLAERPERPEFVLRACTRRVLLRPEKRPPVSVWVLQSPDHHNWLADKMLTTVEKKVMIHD

[4] = system: donepezil-treated patients with moderate Alzheimer's disease; conditions: add-on to donepezil 10 mg per day, all patients; cited from earlier work

Chain of h5-HT2B (P41595 whole entry): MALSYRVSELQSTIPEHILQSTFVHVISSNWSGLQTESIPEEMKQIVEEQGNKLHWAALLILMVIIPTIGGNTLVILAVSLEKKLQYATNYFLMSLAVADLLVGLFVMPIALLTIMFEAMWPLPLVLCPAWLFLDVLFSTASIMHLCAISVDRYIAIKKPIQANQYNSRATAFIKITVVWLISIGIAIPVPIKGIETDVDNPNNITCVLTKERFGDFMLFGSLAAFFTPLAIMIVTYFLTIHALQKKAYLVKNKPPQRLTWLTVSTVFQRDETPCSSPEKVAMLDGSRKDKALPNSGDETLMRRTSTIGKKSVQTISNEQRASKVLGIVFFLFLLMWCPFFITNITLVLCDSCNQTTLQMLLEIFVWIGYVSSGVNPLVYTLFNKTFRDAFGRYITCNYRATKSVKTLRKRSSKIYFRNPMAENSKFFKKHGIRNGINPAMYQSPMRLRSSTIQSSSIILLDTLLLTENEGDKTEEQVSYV
Chain of h5-HT2A (P28223 whole entry): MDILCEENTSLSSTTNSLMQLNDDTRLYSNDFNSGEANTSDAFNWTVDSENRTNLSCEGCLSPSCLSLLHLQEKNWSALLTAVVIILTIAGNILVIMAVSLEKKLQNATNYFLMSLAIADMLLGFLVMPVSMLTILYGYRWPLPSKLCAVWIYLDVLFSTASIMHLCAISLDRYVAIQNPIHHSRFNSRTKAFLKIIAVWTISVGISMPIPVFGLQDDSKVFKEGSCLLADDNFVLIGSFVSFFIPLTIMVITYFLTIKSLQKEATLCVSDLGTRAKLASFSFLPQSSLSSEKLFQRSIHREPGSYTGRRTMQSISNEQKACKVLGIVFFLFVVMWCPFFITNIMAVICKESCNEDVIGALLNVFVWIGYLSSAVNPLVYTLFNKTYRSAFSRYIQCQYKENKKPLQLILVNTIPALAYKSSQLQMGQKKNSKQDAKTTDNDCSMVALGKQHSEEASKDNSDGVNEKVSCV

## Fc1ccc2c(CCNCc3cccc(OCC(F)(F)C(F)F)c3)c[nH]c2c1 [idalopirdine, N-(2-(6-fluoro-1H-indol-3-yl)ethyl)-3-(2,2,3,3-tetrafluoropropoxy)-benzylamine]
h5-HT2B
  pKi: < 5.39
h5-HT2A
  pKi: 7.08
h5-HT1F
  pKi: 5.62
[1]
  Effects on pre-specified secondary efficacy endpoints at week 24: None of the effects of idalopirdine on the pre-specified secondary endpoints were statistically significant
h5-HT1E
  pKi: < 5.34
h5-HT1D
  pKi: 5.59
[2]; ADCS-ADL score, positive = improvement, add-on to donepezil
  Estimated change in effect on ADL at week 24 per unit increase in NPI apathy item score (Estimate): 0.92
[2]; ADCS-ADL, NPI apathy score 0, add-on to donepezil
  Effect on ADL at week 24 in patients without apathy (Estimate): 0.39
[2]; ADCS-ADL, NPI apathy score 1 or higher, add-on to donepezil
  Effect on ADL at week 24 in patients with apathy (Estimate): 2.89
[3]; ADAS-Cog score, negative = less decline, add-on to donepezil
  Estimated change in effect on cognition at week 24 per unit increase in NPI apathy item score (Estimate): −0.64
[3]; ADAS-Cog, NPI apathy score 0, add-on to donepezil
  Effect on cognition at week 24 in patients without apathy (Estimate): −0.81
[3]; ADAS-Cog, NPI apathy score 1 or higher, add-on to donepezil
  Effect on cognition at week 24 in patients with apathy (Estimate): −3.8
h5-HT1A
  pKi: 5.64
h5-HT1B
  pKi: < 5.00
h5-HT7
  pKi: < 5.00
[4]
  Change from baseline in the ADAS-cog at week 24 (primary endpoint) versus placebo: significantly better with idalopirdine than with placebo
